According to US20170305965A1, “Fab REGION-BINDING PEPTIDE” (KANEKA CORPORATION, priority 2014, published 2017):
pKd: −log10 of the molar value.

Assays:
[1] = tested on: IgG-Fab of anti-HER2 monoclonal antibody (Trastuzumab); assay: Biacore 3000 surface plasmon resonance analysis of affinity of SpG variants for immobilized IgG-Fab; assay type: binding, human; conditions: for KA (affinity constant, KA=kon/koff) / koff / kon: Anti-HER2 antibody - Fab immobilized on CM5, peptide 0.1-0.8 μM, 25° C., pH 7.4, 1:1 binding model; for KA Vs. Wild: ratio of KA to that of GB2*-Wild.1d, Anti-HER2 antibody - Fab
Source text: A humanized monoclonal IgG product as a raw material was fragmented into a Fab fragment and a Fc fragment using papain, and only the Fab fragment was separated and purified. Hereinafter, a method for producing IgG-Fab derived from anti-HER2 monoclonal antibody (generic name: Trastuzumab) is described. In the present disclosure, when other IgG-Fab was used for evaluation, the fragment was basically prepared in a similar method.
Specifically, a humanized monoclonal IgG product (“HERCEPTIN” manufactured by CHUGAI PHARMACEUTICAL CO., LTD., in the case of anti-HER2 monoclonal antibody) was dissolved in a buffer for papain treatment (0.1 M AcOH—AcONa, 2 mM EDTA, 1 mM cysteine, pH 5.5), and agarose on which papain was immobilized (“Papain Agarose from papaya latex” manufactured by SIGMA) was added thereto. The mixture was incubated with stirring by a rotator at 37° C. for about 8 hours. The IgG-Fab was purified by recovering the IgG-Fab as a flow-through fraction in an affinity chromatography using KanCapA column (manufactured by GE Healthcare Bioscience) from the reaction mixture which contained both of a Fab fragment and a Fc fragment and which was separated from the agarose on which papain was immobilized. The obtained crude IgG-Fab solution was subjected to purification by gel filtration chromatography using Superdex 75 10/300 GL column to obtain IgG-Fab solution. In the chromatography, a standard buffer was used for equilibration and separation. Similarly to the above-described Example 1, AKTAprime plus system was used in the chromatography for protein purification.
The affinity of each of the SpG-β2* variant obtained in the above-described Example 1(2) for the IgG-Fab of anti-HER2 monoclonal antibody was evaluated using a biosensor Biacore 3000 (manufactured by GE Healthcare Bioscience) utilizing surface plasmon resonance. In the present Example, the IgG-Fab obtained in the above-described Example 2(1) was immobilized on a sensor tip, and each of the peptide was flown on the tip to detect the interaction between the two. The IgG-Fab was immobilized on a sensor tip CM5 by amine coupling method using N-hydroxysuccinimide (NHS) and N-ethyl-N′-(3-dimethylaminopropyl)carbodiimide hydrochloride (EDC), and ethanolamine was used for blocking. All of the sensor tip and reagents for immobilization was manufactured by GE Healthcare Bioscience. The IgG-Fab solution was diluted to about 10 times using a buffer for immobilization (10 mM AcOH—AcONa, pH 4.5), and the IgG-Fab was immobilized on the sensor tip in accordance with the protocol attached to the Biacore 3000. In addition, a reference cell as negative control was also prepared by activating another flow cell on the tip with EDC/NHS and then immobilizing human serum albumin (manufactured by Wako Pure Chemical Industries, Ltd.). Peptide solutions of each of the SpG-β2* variant having concentrations of […] were prepared using a running buffer (20 mM NaH2PO4—Na2HPO4, 150 mM NaCl, 0.005% P-20, pH 7.4). The peptide solution was added to the sensor tip in a flow rate of 10 μL/min for 4 minutes. Bonding response curves at the time of addition (association phase, for 4 minutes) and after the addition (dissociation phase, for 4 minutes) were sequentially obtained at a measurement temperature of 25° C. After each measurement, the added peptide remaining on the sensor tip was removed by flowing the running buffer for 5 minutes or more; and about 10 mM NaOH was added for wash between the measurements if required.
However, the concentration of a protein solution was adjusted to 0.8 μM, bonding response curves at the time of adding the solution (association phase, for 1 minute) and after the addition (dissociation phase, for 2 minutes) were obtained, and a fitting analysis was carried out using one concentration of the solution.

[2] = molecular target: Fab region of IgG; conditions: cited from earlier work

## GB2*-E15W.1d: SpG-β2* one residue variant with E15W, amino acid sequence SEQ ID NO: 23 (TTYKLVINGKTLKGWTTTKAVDAETAERAFRQYATDNGVEGMWTYDPATKTFTVTE; SpG Mutant)
[1]
  KA (affinity constant, KA=kon/koff): 1.08e+07 M⁻¹
  koff: 0.011 s⁻¹
  kon: 119000 s/M
  KA Vs. Wild: 4.8

## GB2*-E15Y.1d: SpG-β2* one residue variant with E15Y, amino acid sequence SEQ ID NO: 21 (TTYKLVINGKTLKGYTTTKAVDAETAERAFRQYATDNGVEGMWTYDPATKTFTVTE; SpG Mutant)
[1]
  KA (affinity constant, KA=kon/koff): 9.3e+06 M⁻¹
  koff: 0.01 s⁻¹
  kon: 92000 s/M
  KA Vs. Wild: 4.0

## GB2*-T02R.1d: SpG-β2* one residue variant with T02R, amino acid sequence SEQ ID NO: 19 (TRYKLVINGKTLKGETTTKAVDAETAERAFRQYATDNGVEGMWTYDPATKTFTVTE; SpG Mutant)
[1]
  KA (affinity constant, KA=kon/koff): 9.8e+06 M⁻¹
  koff: 0.01 s⁻¹
  kon: 98000 s/M
  KA Vs. Wild: 4.3

## GB2*-T02R/E15Y.1d: two residues variant of SpG-β2* with T02R and E15Y, SEQ ID NO: 27 (TRYKLVINGKTLKGYTTTKAVDAETAERAFRQYATDNGVEGMWTYDPATKTFTVTE; SpG Mutant)
[1]; protein solution 0.8 μM, raw bonding response curve compared under the same concentration
  binding response (bonding response curve, FIG. 3): higher than those of GB2*-Wild.1d and GB2*-T02R.1d

## GB2*-Wild.1d: SpG β2 domain variant having excellent thermal stability, SEQ ID NO: 3; comparative example before introducing the mutation (TTYKLVINGKTLKGETTTKAVDAETAERAFRQYATDNGVEGMWTYDPATKTFTVTE; SpG Mutant) [reference compound]
[1]
  KA (affinity constant, KA=kon/koff): 2.3e+06 M⁻¹
  koff: 0.038 s⁻¹
  kon: 88000 s/M
[1]; GB2*-Wild.1d (Table 2) versus variant of Patent Document 2
  difference between association constant of the Patent Document 2 variant and association constant shown in Table 2: about 1.4 times

## GB2-E15W.1d: E15W mutation introduced into wild SpG-β2 domain, SEQ ID NO: 25 (TTYKLVINGKTLKGWTTTKAVDAETAEKAFKQYANDNGVDGVWTYDDATKTFTVTE; SpG Mutant)
[1]; fitting analysis using one concentration, 0.8 μM, association phase 1 minute, dissociation phase 2 minutes
  association constant KA: 1.6e+06 M⁻¹

## GB2-Wild.1d: wild β2 domain of Protein G, SEQ ID NO: 2 (TTYKLVINGKTLKGETTTKAVDAETAEKAFKQYANDNGVDGVWTYDDATKTFTVTE; Streptococcus sp. GX7809)
[2]; described in Table 1 of Patent Document 2, read-out: dissociation constant
  pKd: 5.59
[2]; inverse of the dissociation constant in Table 1 of Patent Document 2
  association constant (inverse number of the dissociation constant of Patent Document 2): 400000 M⁻¹
